The values below come from patent US8614234B2, “Compounds as tyrosine kinase modulators” (Allergan, Inc., priority 2009, dated 2013).

The structures appear in SMILES notation.

The target in this test is PDGFβ (Homo sapiens (Human), UniProt P09619). The experiment in a line: PDGF stimulated Ca2+ signal in vitro (PDGFβ cellular, FLIPR, NHDF-Ad). It counts as cell-based. To be noted: PDGF stimulation 10 ng/mL, intracellular calcium. Background: Calcium flux is commonly read through the fluorescence of an indicator in the cells.
Sequence of PDGFβ (P09619 33-1106): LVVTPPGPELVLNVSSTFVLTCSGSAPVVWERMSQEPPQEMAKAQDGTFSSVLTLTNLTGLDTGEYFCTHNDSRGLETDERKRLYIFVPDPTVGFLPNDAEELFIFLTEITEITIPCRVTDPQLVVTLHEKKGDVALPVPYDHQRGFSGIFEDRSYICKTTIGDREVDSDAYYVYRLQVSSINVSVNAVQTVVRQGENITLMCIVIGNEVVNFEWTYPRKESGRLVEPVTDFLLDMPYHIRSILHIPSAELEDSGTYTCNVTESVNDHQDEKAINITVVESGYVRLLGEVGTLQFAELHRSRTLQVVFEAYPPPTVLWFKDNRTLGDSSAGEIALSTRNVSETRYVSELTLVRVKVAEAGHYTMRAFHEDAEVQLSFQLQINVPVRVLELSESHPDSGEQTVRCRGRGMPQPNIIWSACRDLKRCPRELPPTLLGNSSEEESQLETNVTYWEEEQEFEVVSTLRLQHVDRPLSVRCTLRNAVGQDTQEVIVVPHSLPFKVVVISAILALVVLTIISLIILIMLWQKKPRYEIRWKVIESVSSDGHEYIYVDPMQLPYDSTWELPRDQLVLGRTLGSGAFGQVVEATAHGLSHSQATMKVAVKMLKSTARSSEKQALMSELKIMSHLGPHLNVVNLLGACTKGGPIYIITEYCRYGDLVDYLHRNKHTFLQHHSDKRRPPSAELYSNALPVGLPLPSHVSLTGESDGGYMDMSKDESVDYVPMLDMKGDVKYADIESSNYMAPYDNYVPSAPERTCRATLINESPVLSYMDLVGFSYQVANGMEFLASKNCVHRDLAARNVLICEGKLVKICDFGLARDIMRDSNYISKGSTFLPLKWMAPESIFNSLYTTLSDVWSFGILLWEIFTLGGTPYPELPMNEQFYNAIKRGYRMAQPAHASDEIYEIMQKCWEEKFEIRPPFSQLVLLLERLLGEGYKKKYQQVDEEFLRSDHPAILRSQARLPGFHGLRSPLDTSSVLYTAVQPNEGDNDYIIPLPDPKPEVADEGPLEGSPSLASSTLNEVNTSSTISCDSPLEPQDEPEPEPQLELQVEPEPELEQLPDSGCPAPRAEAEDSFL

`Cc1cccc(NC(=O)Nc2ccc(Oc3ccnc(-c4cc(C(=O)N5CCC[C@@H](O)C5)c[nH]4)c3)cc2)c1` (stereo in doubt) [Example 90, 1-{4-[(2-{4-[(3-hydroxypiperidin-1-yl)carbonyl]-1H-pyrrol-2-yl}pyridin-4-yl)oxy]phenyl}-3-(3-methylphenyl)urea]: the IC50 (as a rule, the concentration at which inhibition is half-maximal) was determined as 21 nM.

In the case of `Cc1cccc(NC(=O)Nc2ccc(Oc3ccnc(-c4cc(C(=O)N5CC[C@@H](O)C5)c[nH]4)c3)cc2)c1` (stereo in doubt) [Example 91, 1-{4-[(2-{4-[(3-hydroxypyrrolidin-1-yl)carbonyl]-1H-pyrrol-2-yl}pyridin-4-yl)oxy]phenyl}-3-(3-methylphenyl)urea], the 50% inhibitory concentration (IC50) worked out at 38 nM.

Take `Cc1ccoc1C(=O)Nc1cccc(Oc2ccnc(-c3cc(C(=O)NCC(O)CO)c[nH]3)c2)c1` (stereo not shown) [Example 15, N-(2,3-dihydroxypropyl)-5-(4-{3-[(3-methyl-2-furoyl)amino]phenoxy}pyridin-2-yl)-1H-pyrrole-3-carboxamide]: the half-inhibitory concentration (IC50) stood at 73 nM.

In the case of `Cc1ccoc1C(=O)Nc1cccc(Oc2ccnc(-c3cc(C(=O)NO)c[nH]3)c2)c1` [Example 17, N-hydroxy-5-(4-{3-[(3-methyl-2-furoyl)amino]phenoxy}pyridin-2-yl)-1H-pyrrole-3-carboxamide], the half-inhibitory concentration (IC50) is 61 nM.

For `Cc1ccc(F)c(NC(=O)c2cccc(Oc3ccnc(-c4cc(C(=O)O)c[nH]4)c3)c2)c1` [Example 19, 5-{4-[3-(2-Fluoro-5-methyl-phenylcarbamoyl)-phenoxy]-pyridin-2-yl}-1H-pyrrole-3-carboxylic acid], the IC50 came out at 135 nM.

As to `Cc1ccoc1C(=O)Nc1cccc(Oc2ccnc(-c3cc(C(=O)OCC(O)CO)c[nH]3)c2)c1` (stereo not shown) [Example 21, 2,3-dihydroxypropyl 5-(4-{3-[(3-methyl-2-furoyl)amino]phenoxy}pyridin-2-yl)-1H-pyrrole-3-carboxylate], the half-maximal inhibitory concentration (IC50) came to 39 nM.

Turning to `Cc1cccc(NC(=O)c2cccc(Oc3ccnc(-c4cc(C(=O)O)c[nH]4)c3)c2)c1` [Example 22, 5-[4-(3-m-Tolylcarbamoyl-phenoxy)-pyridin-2-yl]-1H-pyrrole-3-carboxylic acid], the IC50 stood at 105 nM.

On to `Cc1ccoc1C(=O)Nc1cccc(Oc2ccnc(-c3cc(C(=O)N=S(C)(C)=O)c[nH]3)c2)c1` [Example 30, N-[dimethyl(oxido)-lambda˜4˜-sulfanylidene]-5-(4-{3-[(3-methyl-2-furoyl)amino]phenoxy}pyridin-2-yl)-1H-pyrrole-3-carboxamide], for which the IC50 turned out to be 94 nM.

For `Cc1ccc(F)c(NC(=O)Nc2ccc(Oc3ccnc(-c4cc(C(=O)NCCCC(=O)NCC(O)CO)c[nH]4)c3)cc2)c1` (stereo not shown) [Example 54, N-{4-[(2,3-dihydroxypropyl)amino]-4-oxobutyl}-5-{4-[4-({[(2-fluoro-5-methylphenyl)amino]carbonyl}amino)phenoxy]pyridin-2-yl}-1H-pyrrole-3-carboxamide], the 50% inhibitory concentration (IC50) amounted to 191 nM.

Regarding `Cc1ccc(F)c(NC(=O)Nc2ccc(Oc3ccnc(-c4cc(C(=O)NCCCC(N)=O)c[nH]4)c3)cc2)c1` [Example 55, N-(4-amino-4-oxobutyl)-5-{4-[4-({[(2-fluoro-5-methylphenyl)amino]carbonyl}amino)phenoxy]pyridin-2-yl}-1H-pyrrole-3-carboxamide], the half-maximal inhibitory concentration (IC50) was found to be 26 nM.

`Cc1cccc(NC(=O)Nc2ccc(Oc3ccnc(-c4cc(C(=O)NCC(O)CO)c[nH]4)c3)cc2)c1` (stereo not shown) [Example 92, N-(2,3-dihydroxypropyl)-5-{4-[4-({[(3-methylphenyl)amino]carbonyl}amino)phenoxy]pyridin-2-yl}-1H-pyrrole-3-carboxamide]: the half-maximal inhibitory concentration (IC50) was 39 nM.

`CCNC(=O)c1c[nH]c(-c2cc(Oc3ccc(NC(=O)Nc4cccc(C)c4)cc3)ccn2)c1` [Example 93, N-ethyl-5-{4-[4-({[(3-methylphenyl)amino]carbonyl}amino)phenoxy]pyridin-2-yl}-1H-pyrrole-3-carboxamide]: the IC50 amounted to 14 nM.

Take `Cc1ccc(F)c(NC(=O)Nc2ccc(Oc3ccnc(-c4cc(C(=O)O)c[nH]4)c3)cc2F)c1` [Example 96, 5-{4-[3-fluoro-4-({[(2-fluoro-5-methylphenyl)amino]carbonyl}amino)phenoxy]pyridin-2-yl}-1H-pyrrole-3-carboxylic acid]: the IC50 is 69 nM.

On to `Cc1ccc(F)c(NC(=O)Nc2ccc(Oc3ccnc(-c4cc(C(=O)N=S(C)(C)=O)c[nH]4)c3)cc2)c1` [Example 101, N-[dimethyl(oxido)-lambda˜4˜-sulfanylidene]-5-{4-[4-({[(2-fluoro-5-methylphenyl)amino]carbonyl}amino)phenoxy]pyridin-2-yl}-1H-pyrrole-3-carboxamide], for which the IC50 was 82 nM.

For the molecule `COC(=O)[C@@H]1CCCN1CCNC(=O)c1c[nH]c(-c2cc(Oc3ccc(NC(=O)Nc4cc(C)ccc4F)cc3)ccn2)c1` [Example 102, methyl (2S)-1-(2-{[(5-{4-[4-({[(2-fluoro-5-methylphenyl)amino]carbonyl}amino)phenoxy]pyridin-2-yl}-1H-pyrrol-3-yl)carbonyl]amino}ethyl)pyrrolidine-2-carboxylate], the half-maximal inhibitory concentration (IC50) was 8 nM.

For the molecule `Cc1ccc(F)c(NC(=O)Nc2ccc(Oc3ccnc(-c4cc(C(=O)NO)c[nH]4)c3)cc2)c1` [Example 108, 5-{4-[4-({[(2-fluoro-5-methylphenyl)amino]carbonyl}amino)phenoxy]pyridin-2-yl}-N-hydroxy-1H-pyrrole-3-carboxamide], the IC50 worked out at 43 nM.

Consider `Cc1ccc(F)c(NC(=O)Nc2ccc(Oc3ccnc(-c4cc(C(=O)NCCCO)c[nH]4)c3)cc2)c1` [Example 110, 5-{4-[4-({[(2-fluoro-5-methylphenyl)amino]carbonyl}amino)phenoxy]pyridin-2-yl}-N-(3-hydroxypropyl)-1H-pyrrole-3-carboxamide], for which the IC50 amounted to 32 nM.

Take `Cc1cccc(NC(=O)Nc2ccc(Oc3ccnc(-c4cc(C(=O)O)c[nH]4)c3)cc2)c1` [Example 115, 5-{4-[4-({[(3-methylphenyl)amino]carbonyl}amino)phenoxy]pyridin-2-yl}-1H-pyrrole-3-carboxylic acid]: the 50% inhibitory concentration (IC50) stood at 44 nM.

As for `O=C(Nc1ccc(Oc2ccnc(-c3cc(C(=O)O)c[nH]3)c2)cc1)Nc1ccc(Cl)c(C(F)(F)F)c1` [Example 121, 5-(4-{4-[({[4-chloro-3-(trifluoromethyl)phenyl]amino}carbonyl)amino]phenoxy}pyridin-2-yl)-1H-pyrrole-3-carboxylic acid], the IC50 was found to be 102 nM.

In the case of `Cc1ccc(F)c(NC(=O)Nc2ccc(Oc3ccnc(-c4csc(C(=O)O)c4)c3)cc2)c1` [Example 123, 4-{4-[4-({[(2-fluoro-5-methylphenyl)amino]carbonyl}amino)phenoxy]pyridin-2-yl}thiophene-2-carboxylic acid], the half-inhibitory concentration (IC50) was found to be 85 nM.

For the molecule `Cc1ccc(F)c(NC(=O)Nc2ccc(Oc3ccnc(-c4cc(C(=O)NCC(O)CO)c[nH]4)c3)cc2)c1` (stereo not shown) [Example 127, N-(2,3-dihydroxypropyl)-5-{4-[4-({[(2-fluoro-5-methylphenyl)amino]carbonyl}amino)phenoxy]pyridin-2-yl}-1H-pyrrole-3-carboxamide], the half-inhibitory concentration (IC50) came out at 91 nM.

On to `Cc1ccc(F)c(NC(=O)Nc2ccc(Oc3ccnc(-c4cc(C(=O)OCC(O)CO)c[nH]4)c3)cc2)c1` (stereo not shown) [Example 130, 2,3-dihydroxypropyl 5-{4-[4-({[(2-fluoro-5-methylphenyl)amino]carbonyl}amino)phenoxy]pyridin-2-yl}-1H-pyrrole-3-carboxylate], for which the concentration for half-maximal inhibition (IC50) was found to be 32 nM.
